Test [1] concerns the target Activin receptor type-2A (Homo sapiens) (UniProt P27037). Briefly: Inhibition of human ACTR2A (162 to end residues) assessed as residual activity at 1 uM using casein as substrate incubated for 120 mins in presence of [gamma-33ATP] by scintillation counting based radiometry assay relative to control.
Test [2] has as its target 5'-AMP-activated protein kinase catalytic subunit alpha-1 (Homo sapiens) (UniProt Q13131). The test can be described thus: Inhibition of recombinant full length human AMPKalpha1 assessed as residual activity at 1 uM using AMARAASAAALAR as substrate incubated for 40 mins in presence of [gamma-33ATP] by scintillation counting based radiometry assay relative to control.
The target in test [3] is Calcium/calmodulin-dependent protein kinase type 1B (Homo sapiens) (UniProt Q6P2M8). Briefly: Inhibition of recombinant full length human CaMKIbeta assessed as residual activity at 1 uM using KKLRRTLSFAEP as substrate incubated for 40 mins in presence of [gamma-33ATP] by scintillation counting based radiometry assay relative to control.
Test [4] concerns the target CDK9/cyclin T1 (Homo sapiens) (UniProt O60563+P50750). Briefly: Inhibition of recombinant full length human CDK9/cyclinT1 assessed as residual activity at 1 uM using KTFCGTPEYLAPEVRREPRILSEEEQEMFRDFDYIADWC as substrate incubated for 40 mins in presence of [gamma-33ATP] by scintillation counting based radiometry assay relative to control. The test is classed as protein-complex assay.

Test [5] has as its system Fibroblast growth factor receptor 1 (Homo sapiens), P11362 [V561M]. The test can be described thus: Inhibition of recombinant human FGFR1 V561M mutant (456 to 765 residues) assessed as residual activity at 1 uM using GGEEEEYFELVKKKK as substrate at 40 mins in presence of [gamma-33ATP] by scintillation counting based radiometry assay relative to control.
For test [6], the system named is Fibroblast growth factor receptor 2 (Homo sapiens), P21802 [N549H]. Briefly: Inhibition of recombinant human FGFR2 N549H mutant (456 to 770 residues) assessed as residual activity at 1 uM using GGEEEEYFELVKKKK as substrate at 40 mins in presence of [gamma-33ATP] by scintillation counting based radiometry assay relative to control.
Fibroblast growth factor receptor 2 (Homo sapiens), P21802 [N549H], sequence (P21802 whole entry N549H, the tested form may be a part): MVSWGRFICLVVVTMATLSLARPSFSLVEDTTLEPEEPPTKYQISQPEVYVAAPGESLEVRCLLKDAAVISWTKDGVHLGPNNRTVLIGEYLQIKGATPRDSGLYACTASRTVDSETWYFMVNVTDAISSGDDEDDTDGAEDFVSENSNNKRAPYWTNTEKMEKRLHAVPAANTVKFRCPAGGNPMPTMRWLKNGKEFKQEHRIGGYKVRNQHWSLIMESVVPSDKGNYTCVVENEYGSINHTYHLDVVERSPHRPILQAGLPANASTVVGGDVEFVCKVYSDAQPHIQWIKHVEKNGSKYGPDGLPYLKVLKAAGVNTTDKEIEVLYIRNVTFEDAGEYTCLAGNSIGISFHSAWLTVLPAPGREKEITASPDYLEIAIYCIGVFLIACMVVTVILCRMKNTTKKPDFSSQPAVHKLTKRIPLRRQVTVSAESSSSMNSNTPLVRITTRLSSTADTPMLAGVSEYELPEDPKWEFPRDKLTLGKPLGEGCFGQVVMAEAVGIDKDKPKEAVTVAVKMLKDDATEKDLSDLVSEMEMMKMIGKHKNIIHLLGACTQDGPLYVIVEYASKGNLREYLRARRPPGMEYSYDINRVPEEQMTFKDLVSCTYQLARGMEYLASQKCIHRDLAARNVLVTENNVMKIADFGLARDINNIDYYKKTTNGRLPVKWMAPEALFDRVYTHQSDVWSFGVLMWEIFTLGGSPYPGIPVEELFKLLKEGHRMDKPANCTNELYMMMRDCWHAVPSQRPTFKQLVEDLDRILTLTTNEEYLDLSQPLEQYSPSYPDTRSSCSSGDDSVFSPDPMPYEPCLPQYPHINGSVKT
The target of test [7] is Homeodomain-interacting protein kinase 1 (Homo sapiens) (UniProt Q86Z02). The test can be described thus: Inhibition of human HIPK1 (158 to 555 residues) assessed as residual activity at 1 uM using myelin basic protein as substrate after 40 mins by [gamma-33ATP] radiometric assay relative to control.
In test [8] the test system is Hepatocyte growth factor receptor (Homo sapiens), P08581 [Y1230D]. Briefly: Inhibition of recombinant human MET A1209G/V1290L/Y1248D mutant (974 to end residues) assessed as residual activity at 1 uM using KKKGQEEEYVFIE as substrate incubated for 40 mins in presence of [gamma-33ATP by scintillation counting based radiometry assay relative to control.
Test [9] deals with Serine/threonine-protein kinase Nek7 (Homo sapiens) (UniProt Q8TDX7). The test can be described thus: Inhibition of recombinant human NEK7 (2 to end residues) assessed as residual activity at 1 uM using FLAKSFGSPNRAYKK as substrate measured after 40 mins in presence of [gamma33P]ATP by scintillation counting method relative to control.
Test [10] deals with NUAK family SNF1-like kinase 2 (Homo sapiens) (UniProt Q9H093). The test can be described thus: Inhibition of recombinant human full length NUAK2 assessed as residual activity at 1 uM using KKKVSRSGLYRSPSMPENLNRPR as substrate measured after 40 mins in presence of [gamma33P]ATP by scintillation counting method relative to control.
Test [11] concerns Platelet-derived growth factor receptor alpha (Homo sapiens), P16234 [V561D]. Briefly: Inhibition of human PDGFRalpha V561D mutant (550 to end residues) assessed as residual activity at 1 uM using GGMEDIYFEFMGGKKK as substrate measured after 40 mins in presence of [gamma33P]ATP by scintillation counting method relative to control.
Platelet-derived growth factor receptor alpha (Homo sapiens), P16234 [V561D], sequence (P16234 whole entry V561D, canonical isoform): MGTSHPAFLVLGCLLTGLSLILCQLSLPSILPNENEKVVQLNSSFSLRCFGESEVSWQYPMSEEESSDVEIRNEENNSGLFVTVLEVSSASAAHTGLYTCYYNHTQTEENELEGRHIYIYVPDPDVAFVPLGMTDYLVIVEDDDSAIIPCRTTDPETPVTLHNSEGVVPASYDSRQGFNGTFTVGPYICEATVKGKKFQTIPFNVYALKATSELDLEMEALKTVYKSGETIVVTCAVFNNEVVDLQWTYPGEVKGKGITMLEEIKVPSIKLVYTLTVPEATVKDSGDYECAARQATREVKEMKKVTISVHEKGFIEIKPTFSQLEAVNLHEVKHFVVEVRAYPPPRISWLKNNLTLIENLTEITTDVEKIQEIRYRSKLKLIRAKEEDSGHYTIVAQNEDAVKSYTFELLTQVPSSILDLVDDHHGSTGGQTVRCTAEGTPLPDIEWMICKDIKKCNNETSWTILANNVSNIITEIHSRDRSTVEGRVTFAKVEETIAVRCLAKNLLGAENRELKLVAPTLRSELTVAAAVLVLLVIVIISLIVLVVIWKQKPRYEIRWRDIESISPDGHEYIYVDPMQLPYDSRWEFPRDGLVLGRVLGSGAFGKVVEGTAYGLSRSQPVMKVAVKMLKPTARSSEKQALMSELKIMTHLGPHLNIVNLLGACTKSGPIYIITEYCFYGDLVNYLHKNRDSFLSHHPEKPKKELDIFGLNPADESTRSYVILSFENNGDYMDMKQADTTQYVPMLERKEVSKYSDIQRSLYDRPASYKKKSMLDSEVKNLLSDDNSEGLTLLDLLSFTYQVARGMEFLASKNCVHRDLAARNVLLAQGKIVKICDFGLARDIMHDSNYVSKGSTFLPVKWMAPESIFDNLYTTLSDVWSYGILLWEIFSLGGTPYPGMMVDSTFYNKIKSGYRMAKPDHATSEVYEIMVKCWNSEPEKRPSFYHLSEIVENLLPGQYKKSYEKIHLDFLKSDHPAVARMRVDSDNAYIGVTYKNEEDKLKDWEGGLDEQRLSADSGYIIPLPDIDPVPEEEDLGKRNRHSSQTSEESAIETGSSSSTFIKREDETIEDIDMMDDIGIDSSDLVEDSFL
The target in test [12] is Phosphorylase b kinase gamma catalytic chain, skeletal muscle/heart isoform (Homo sapiens) (UniProt Q16816). The test can be described thus: Inhibition of recombinant full-length human PhKgamma1 assessed as residual activity at 1 uM using KKLNRTLSFAEPG as substrate measured after 120 mins in presence of [gamma33P]ATP by scintillation counting method relative to control.

For test [13], the target named is Serine/threonine-protein kinase N2 (Homo sapiens) (UniProt Q16513). The test can be described thus: Inhibition of recombinant human PRK2 (501 to end residues) assessed as residual activity at 1 uM using AKRRRLSSLRA as substrate measured after 40 mins in presence of [gamma33P]ATP by scintillation counting method relative to control.
Test [14] concerns the target Receptor-interacting serine/threonine-protein kinase 1 (Homo sapiens) (UniProt Q13546). The test can be described thus: Inhibition of recombinant human RIPK1 (8 to 322 residues) assessed as residual activity at 1 uM using myelin basic protein as substrate measured after 120 mins in presence of [gamma33P]ATP by scintillation counting method relative to control.
For test [15], the target named is Serine/threonine-protein kinase SIK3 (Homo sapiens) (UniProt Q9Y2K2). The test can be described thus: Inhibition of recombinant human SIK3 (1 to 307 residues) assessed as residual activity at 1 uM using KKKVSRSGLYRSPSMPENLNRPR as substrate measured after 40 mins in presence of [gamma33P]ATP by scintillation counting method relative to control.
Test [16] has as its target BDNF/NT-3 growth factors receptor (Homo sapiens) (UniProt Q16620). Briefly: Inhibition of human TrkB (455 to end residues) assessed as residual activity at 1 uM using poly(Glu, Tyr) 4:1 as substrate measured after 40 mins in presence of [gamma33P]ATP by scintillation counting method relative to control.
Test [17] has as its target Testis-specific serine/threonine-protein kinase 1 (Homo sapiens) (UniProt Q9BXA7). The test can be described thus: Inhibition of recombinant full-length human TSSK1 at 1 uM assessed as residual activity at 1 uM using KKKVSRSGLYRSPSMPENLNRPR as substrate measured after 120 mins in presence of [gamma33P]ATP by scintillation counting method relative to control.
Test [18] addresses Tyrosine-protein kinase TXK (Homo sapiens) (UniProt P42681). Briefly: Inhibition of human Txk (256 to end residues) assessed as residual activity at 1 uM using GEEPLYWSFPAKKK as substrate measured after 40 mins in presence of [gamma33P]ATP by scintillation counting method relative to control.
Test [19] addresses Wee1-like protein kinase (Homo sapiens) (UniProt P30291). Briefly: Inhibition of human Wee1 (214 to end residues) assessed as residual activity at 1 uM using LSNLYHQGKFLQTFCGSPLYRRR as substrate measured after 40 mins in presence of [gamma33P]ATP by scintillation counting method relative to control.
For test [20], the species on record is Mus musculus. Briefly: Inhibition of recombinant full-length mouse PI3K p110alpha/p85alpha at 1 uM assessed as residual activity at 1 uM using phosphatidylinositol-4, 5-bisphosphate as substrate measured after 40 mins by HTRF assay.

BDNF/NT-3 growth factors receptor (Homo sapiens), sequence (Q16620 32-822 limits assumed): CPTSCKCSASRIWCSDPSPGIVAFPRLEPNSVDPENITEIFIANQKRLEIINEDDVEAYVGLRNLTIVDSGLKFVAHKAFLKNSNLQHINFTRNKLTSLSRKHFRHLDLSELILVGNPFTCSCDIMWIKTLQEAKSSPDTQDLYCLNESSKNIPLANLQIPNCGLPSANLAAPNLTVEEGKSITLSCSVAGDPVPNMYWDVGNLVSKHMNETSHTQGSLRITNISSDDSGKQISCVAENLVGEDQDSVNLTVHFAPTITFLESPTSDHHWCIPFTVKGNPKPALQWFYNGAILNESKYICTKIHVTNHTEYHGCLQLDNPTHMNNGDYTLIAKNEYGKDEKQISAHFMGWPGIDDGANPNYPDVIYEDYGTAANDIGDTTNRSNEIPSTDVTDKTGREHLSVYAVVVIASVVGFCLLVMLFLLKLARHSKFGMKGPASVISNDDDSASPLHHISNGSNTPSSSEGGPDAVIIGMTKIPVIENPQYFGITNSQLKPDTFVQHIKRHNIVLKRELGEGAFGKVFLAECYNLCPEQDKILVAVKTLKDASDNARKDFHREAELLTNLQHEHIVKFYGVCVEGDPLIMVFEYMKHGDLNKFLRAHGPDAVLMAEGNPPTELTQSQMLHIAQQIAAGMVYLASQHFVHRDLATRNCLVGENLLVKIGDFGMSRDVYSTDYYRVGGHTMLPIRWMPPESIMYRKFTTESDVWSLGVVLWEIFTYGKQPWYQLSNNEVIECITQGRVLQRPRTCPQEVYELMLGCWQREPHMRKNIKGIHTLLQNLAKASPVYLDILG
Testis-specific serine/threonine-protein kinase 1 (Homo sapiens), sequence (Q9BXA7 whole entry): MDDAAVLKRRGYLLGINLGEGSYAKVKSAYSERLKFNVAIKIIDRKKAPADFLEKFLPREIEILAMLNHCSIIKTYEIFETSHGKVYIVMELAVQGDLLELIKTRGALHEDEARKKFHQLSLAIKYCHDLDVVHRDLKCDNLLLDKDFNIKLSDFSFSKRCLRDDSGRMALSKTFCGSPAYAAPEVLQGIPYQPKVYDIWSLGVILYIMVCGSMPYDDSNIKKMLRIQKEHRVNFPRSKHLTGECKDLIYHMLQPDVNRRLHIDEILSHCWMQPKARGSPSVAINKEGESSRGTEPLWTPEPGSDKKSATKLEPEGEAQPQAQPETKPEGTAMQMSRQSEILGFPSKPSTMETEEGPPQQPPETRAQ
Receptor-interacting serine/threonine-protein kinase 1 (Homo sapiens), sequence (Q13546 whole entry, the tested form may be a part): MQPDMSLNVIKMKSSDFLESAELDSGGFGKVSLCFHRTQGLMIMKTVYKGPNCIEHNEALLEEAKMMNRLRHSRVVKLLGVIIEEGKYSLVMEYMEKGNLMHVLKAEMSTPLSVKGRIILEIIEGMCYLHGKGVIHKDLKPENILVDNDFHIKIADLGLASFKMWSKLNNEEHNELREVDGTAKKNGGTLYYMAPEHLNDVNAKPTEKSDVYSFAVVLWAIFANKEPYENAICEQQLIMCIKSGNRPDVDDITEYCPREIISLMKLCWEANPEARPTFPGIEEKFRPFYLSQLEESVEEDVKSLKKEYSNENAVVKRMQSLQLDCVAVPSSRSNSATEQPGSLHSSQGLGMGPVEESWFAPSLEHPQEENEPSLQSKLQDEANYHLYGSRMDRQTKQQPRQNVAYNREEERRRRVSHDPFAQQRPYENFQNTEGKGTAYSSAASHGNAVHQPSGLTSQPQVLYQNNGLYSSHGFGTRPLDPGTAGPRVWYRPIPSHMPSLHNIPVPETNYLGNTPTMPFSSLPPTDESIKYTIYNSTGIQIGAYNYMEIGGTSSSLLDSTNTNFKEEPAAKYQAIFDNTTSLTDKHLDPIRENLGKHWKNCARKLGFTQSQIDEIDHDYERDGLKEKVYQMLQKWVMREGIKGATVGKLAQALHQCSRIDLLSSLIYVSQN
Tyrosine-protein kinase TXK (Homo sapiens), sequence (P42681 whole entry): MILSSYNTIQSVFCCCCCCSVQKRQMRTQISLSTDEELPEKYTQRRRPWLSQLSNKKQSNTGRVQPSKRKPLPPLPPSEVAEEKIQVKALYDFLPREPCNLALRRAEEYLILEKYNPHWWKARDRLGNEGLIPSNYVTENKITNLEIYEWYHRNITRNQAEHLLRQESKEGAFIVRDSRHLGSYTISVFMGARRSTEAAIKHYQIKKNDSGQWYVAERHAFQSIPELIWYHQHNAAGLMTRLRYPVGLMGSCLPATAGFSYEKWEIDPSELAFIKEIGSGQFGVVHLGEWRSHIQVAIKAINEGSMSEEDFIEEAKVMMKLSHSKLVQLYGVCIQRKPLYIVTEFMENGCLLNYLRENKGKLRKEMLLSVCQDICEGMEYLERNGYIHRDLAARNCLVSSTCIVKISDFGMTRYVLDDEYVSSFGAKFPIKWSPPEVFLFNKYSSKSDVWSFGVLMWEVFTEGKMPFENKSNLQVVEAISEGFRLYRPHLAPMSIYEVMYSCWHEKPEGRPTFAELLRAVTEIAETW
Wee1-like protein kinase (Homo sapiens), sequence (P30291 whole entry, looked up): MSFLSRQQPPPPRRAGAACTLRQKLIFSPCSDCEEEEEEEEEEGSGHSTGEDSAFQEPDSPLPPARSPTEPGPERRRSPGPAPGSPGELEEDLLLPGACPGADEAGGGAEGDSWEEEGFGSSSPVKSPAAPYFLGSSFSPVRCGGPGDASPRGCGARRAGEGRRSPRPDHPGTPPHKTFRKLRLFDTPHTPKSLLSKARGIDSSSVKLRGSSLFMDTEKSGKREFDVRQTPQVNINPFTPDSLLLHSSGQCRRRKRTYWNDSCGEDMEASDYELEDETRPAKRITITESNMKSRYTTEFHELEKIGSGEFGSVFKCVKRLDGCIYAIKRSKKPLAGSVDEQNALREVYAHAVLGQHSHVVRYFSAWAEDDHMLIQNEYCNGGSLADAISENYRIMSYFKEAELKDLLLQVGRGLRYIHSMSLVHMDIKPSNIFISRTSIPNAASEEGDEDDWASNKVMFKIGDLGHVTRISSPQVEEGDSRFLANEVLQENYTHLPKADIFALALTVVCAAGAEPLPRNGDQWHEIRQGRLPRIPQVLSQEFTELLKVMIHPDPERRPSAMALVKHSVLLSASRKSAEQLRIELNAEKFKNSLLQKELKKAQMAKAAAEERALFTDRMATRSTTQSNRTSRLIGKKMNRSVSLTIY

As to `N=C1NC(=O)/C(=C\c2ccc(-c3cccc([N+](=O)[O-])c3)o2)S1`, the Activity turned out to be 99% in test [1]; 44% in test [2]; 100% in test [3]; 74% in test [4]; 91% in test [5]; 96% in test [6]. In addition, the Activity in [7] was 3%; in test [8], 92%; in [9], 107%; in test [10] it was 95%; in [11], 91%; in test [12], 91%. Besides, the Activity in [13] was 95%; in test [14], 100%; in test [15] it was 101%; in [16], 98%; in [17] it was 91%; in [18], 100%. For the same compound, the values for the Activity in [19] and in test [20] were 103% and 97%, respectively.

For `C=CCOC(=O)c1cc(-c2ccc(/C=C3/NC(=S)NC3=O)o2)ccc1Cl`, the Activity in [1] is 100%; in test [2] it was 24%; in [3], 78%; in [4], 86%; in [5] it was 102%; in test [6], 100%. Moreover, the Activity in test [7] was determined as 5%; in [8] it was 105%; in [9], 98%; in test [10], 111%; in test [11], 110%; in test [12] it was 94%. Besides, the Activity in test [13] is 107%; in test [14], 106%; in test [15], 96%; in test [16] it was 92%; in test [17] it was 97%; in [18], 104%. Moreover, the figures for the Activity in test [19] and in [20] were 106% and 93%, respectively.

Source of the values: ChEMBL document CHEMBL4334438, “Discovery of novel glycogen synthase kinase-3α inhibitors: Structure-based virtual screening, preliminary SAR and biological evaluation for treatment of acute myeloid leukemia” (Eur J Med Chem, 2019).
